Assay results as given in US7601713B2, “Kinase inhibitors and their uses” (Rigel Pharmaceuticals, Inc., priority 2005, dated 2009).

How the values were obtained:
[1] = system: JAK kinases (JAK1 and JAK3); test: JAK inhibition: IL-4-stimulated CD23 upregulation in human Ramos B-cells, FACS; type: cell-based; conditions: IL-4 stimulated Ramos B-cells, read-out: IC50, inhibition of JAK kinases in cellular assay
Description: JAK inhibition was tested in human Ramos B-cells activated with IL-4. Twenty to 24 hours post stimulation, the cells are stained for upregulation of CD23 and analyzed by FACS. Stimulation of the B-cells with IL-4 leads to the activation of the JAK/STAT pathway through phosphorylation of the JAK kinase JAK1 and JAK3, which in turn phosphorylate and activate transcription of factor […].
For the assay, human Ramos B-cells (ATCC, Catalog No. CRL-1596) are cultured in RPMI 1640 medium (Cellgro, Catalog No. 10-040-CM) containing 10% fetal bovine serum (JRH, Catalog No. 12106-500M) according to the propagation protocol supplied with the cells, and maintained at a density of approximately 3.5×10^5 cells/ml. The day before the assay, the cells are diluted to 3.5×10^5 cells/ml to insure they are in the logarithmic growth phase. The cells are spun down, and suspended in RPMI 1640 medium containing 5% fetal bovine serum to a density of 3.5×10^4 cells/ml and aliquots dispensed into a 96-well tissue culture plate. Cells are incubated with test compound (dissolved in DMSO) or DMSO (control) for 1 hr at 37° C. and then stimulated with IL-4 (Pepotech, Catalog No. 200-04) for 20-24 hours (final concentration is 50 Units/ml). Cells are then spun down, stained with anti-CD23-PE antibody (BD Pharmigen, Catalog No. 555711) and analyzed by FACS.

Axl kinase = target: T1, Axl kinase (Homo sapiens, UniProt P30530); test: Phospho-Akt in-cell Western assay (Axl antibody cross-linking, Hela cells); type: cell-based; conditions: phospho-Akt readout, read-out: IC50, inhibition of Axl kinase
T1 construct: endogenous in cells; host or cells: HeLa cells
T1 sequence (P30530 26-894): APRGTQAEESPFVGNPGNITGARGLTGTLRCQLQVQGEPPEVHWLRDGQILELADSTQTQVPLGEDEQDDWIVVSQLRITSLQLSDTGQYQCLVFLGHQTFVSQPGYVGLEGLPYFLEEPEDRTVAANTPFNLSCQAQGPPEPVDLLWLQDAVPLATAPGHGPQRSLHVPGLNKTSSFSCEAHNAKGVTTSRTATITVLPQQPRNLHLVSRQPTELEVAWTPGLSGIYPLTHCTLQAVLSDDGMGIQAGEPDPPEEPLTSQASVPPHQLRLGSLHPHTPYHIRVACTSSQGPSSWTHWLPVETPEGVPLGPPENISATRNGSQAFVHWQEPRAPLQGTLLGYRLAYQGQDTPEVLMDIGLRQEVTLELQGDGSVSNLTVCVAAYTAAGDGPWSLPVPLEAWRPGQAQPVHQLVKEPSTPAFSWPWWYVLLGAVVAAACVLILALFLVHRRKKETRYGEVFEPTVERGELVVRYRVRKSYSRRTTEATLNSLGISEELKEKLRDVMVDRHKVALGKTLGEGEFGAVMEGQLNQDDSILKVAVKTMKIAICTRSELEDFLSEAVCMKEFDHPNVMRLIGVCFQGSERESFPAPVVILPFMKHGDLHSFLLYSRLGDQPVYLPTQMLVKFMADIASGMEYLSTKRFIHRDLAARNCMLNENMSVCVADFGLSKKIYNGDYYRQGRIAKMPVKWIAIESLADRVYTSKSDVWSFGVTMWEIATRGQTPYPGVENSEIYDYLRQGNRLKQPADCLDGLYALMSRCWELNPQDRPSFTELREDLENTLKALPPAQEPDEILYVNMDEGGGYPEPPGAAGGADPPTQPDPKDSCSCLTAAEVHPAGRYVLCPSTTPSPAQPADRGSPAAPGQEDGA
Description: The compounds of the invention were tested in the following assay for their ability to inhibit Axl activity.
Phospho-Akt in-Cell Western Assay
Starvation medium: For Axl stimulation: 0.5% FCS (fetal calf serum) in DMEM, plus Axl/Fc (extracellular domain of AXL fused to immunoglobulin Fc region) (R&D, 154-AL) 500 ng/mL.
Axl antibody cross-linking: • 1st: Mouse anti-Axl (R&D, MAB 154). • 2nd: Biotin-SP-conjugated AffiniPure goat anti-mouse IgG (H+L) (Jackson ImmunoResearch #115-065-003).
Primary antibody: Rabbit anti-human Phospho-Akt antibody (Cell Signaling 9271): 1×250 diluted in blocking buffer.
Secondary antibody: HRP (horse radish peroxidase)-conjugated Goat anti-Rabbit secondary, stock solution: Jackson lmmunoResearch (Goat anti-Rabbit HRP, #111-035-144) 1:1 diluted in glycerol, store at −20° C. The working solution: 1×2000 dilution of stock in blocking buffer.
A 96 well TC (tissue culture treated) plate was coated with 10 μg/mL poly-L-Lysine at 37° C. for 30 min, washed twice with PBS, and air-dried for 5 minutes before cells were added. Hela cells were seeded at 10,000 cells/well and the cells were starved in 100 μL starvation medium containing Axl/Fc for 24 hrs.
The cells were pre-treated with test compounds by adding 100 μL of 2× test compound to the starvation medium on the cells. The cells were incubated at 37° C. for 1 hr before stimulation.
The cells were stimulated by Axl-antibody cross-linking as follows: A 5× 1st/2nd Axl antibody mixture was made (37.5 μg/mL 1st/100 μg/mL 2nd) in starvation medium and nutated at 4° C. with thorough mixing for 1-2 hours for clustering. The resulting mix was warmed to 37° C. 50 μL of 5× Axl 1st/2nd of antibody cluster was added to the cells and the cells were incubated at 37° C. for 5 min.
After 5 minutes stimulation, the plate was flicked to remove medium and the plate was tapped onto paper towels. Formaldehyde (4.0% in PBS, 100 μL) was added to fix the cells and the cells were incubated at ambient temperature for 20 min without shaking.
The cells were washed with a plate washer buffer to remove the formaldehyde solution. The plate was flicked to remove excess wash buffer and tapped onto paper towels. Quenching buffer (100 μL) was added to each well and the cells were incubated at ambient temperature for 20 minutes without shaking.
The cells were washed with a plate washer buffer to remove the quenching buffer. Blocking buffer (100 μL) was added and the cells were incubated at ambient temperature for at least an hour with gentle shaking.
The cells were washed with a plate washer buffer and diluted primary antibody (50 μL) was added to each well (blocking buffer was added to the negative control wells instead). The plates were incubated overnight at 4° C. with gentle shaking.
The wash buffer was removed, diluted secondary antibody (100 μL) was added, and the cells were incubated at ambient temperature for 1 hour with gentle shaking. During the incubation, the chemiluminescent reagent was brought to ambient temperature.
The secondary antibody was removed by washing the cells 1× with wash buffer, 1× with PBS by plate washer. The PBS was removed from the plate and the chemiluminescent reagent (80 μL: 40 μL A and 40 μL B) was added to each well at ambient temperature.
The resulting chemiluminescence was read with a Luminomitor within 10 minutes to minimize changes in signal intensity. After reading the chemiluminescence, the cells were washed 1× with wash buffer and 1× with PBS by plate washer. The plate was tapped onto paper towels to remove excess liquid from wells and air-dried at ambient temperature for 5 minutes.
Crystal Violet working solution (60 μL) was added to each well and the cells were incubated at ambient temperature for 30 min. The crystal violet solution was removed, and the wells were rinsed with PBS, then washed 3× with PBS (200 μL) for 5 minutes each.
5% SDS solution (70 μL) was added to each well and the cells were incubated on a shaker for 30 min at ambient temperature. […]

IC50 [1]	IC50 (Axl kinase)	SMILES
> 10 µM	< 10 µM	NC(=O)C1C2C=CC(C2)C1Nc1nc(Nc2cccc(OCc3ccncc3)c2)nc2[nH]ccc12 (racemic) [Compound 223, Racemic-(2-exo,3-exo)-N4-(3-aminocarbonylbicyclo [2.2.1]hept-5-en-2-yl)-N2-[3-(4-pyridinylmethoxy)] phenyl-1H-pyrrolo[2,3-d]pyrimidine-2,4-diamine]
> 10 µM	–	NC(=O)C1C2CCC(C2)C1Nc1nc(Nc2ccc(N3CCCCC3)cc2)nc2[nH]ccc12 (racemic) [Compound 168, Racemic-(2-exo,3-exo) N4-(3-aminocarbonylbicyclo[2.2. 1]hept-2-yl)-N2-[4-(piperidin-1-yl)phenyl]-1H-pyrrlol[2,3-d]pyrimidine-2,4-diamine]
< 5 µM	–	NC(=O)[C@@H]1[C@H](Nc2nc(Nc3ccc4[nH]ccc4c3)nc3[nH]cnc23)[C@H]2C=C[C@@H]1C2 [Compound 147, (1R,2R,3S,4S)-N6-(3-Aminocarbonylbicyclo[2.2. 1]hept-5-en-2-yl)-N2-(1H-indol-5-yl)-1H-purine-2,6-diamine]
> 10 µM	< 10 µM	NC(=O)C1C2C=CC(C2)C1Nc1nc(Nc2cccc(OCc3ccncc3)c2)nc2[nH]cnc12 (racemic) [Compound 224, Racemic-(2-exo,3-exo-)-N6-(3-aminocarbonylbicyclo [2.2.1]hept-5-en-2-yl)-N2-[3-(4-pyridinylinethoxy)] phenyl-1H-purine-2,6-diamine]
< 5 µM	> 10 µM	Cc1csc2c(NC3C4C=CC(C4)C3C(N)=O)nc(Nc3ccc(S(N)(=O)=O)cc3)nc12 (racemic) [Compound 242, Racemic-(2-exo,3-exo-)-7-methyl-N4-(3-aminocarbonylbicyclo [2.2.1]hept-5-en-2-yl)-N2-(4-aminosulfonyl)phenyl-thieno[3,2-d]pyrimidine-2,4-diamine]
< 5 µM	–	COc1cc2nc(Nc3cccc(O)c3)nc(NC3C4C=CC(C4)C3C(N)=O)c2cc1OC (racemic) [Compound 101, Racemic-(2-exo,3-exo)-N4-(3-aminocarbonylbicyclo[2.2. 1]hept-5-en-2-yl)-6,7-dimethoxy-N2-(3-hydroxy)phenyl-2,4-quinazoline-diamine]
< 5 µM	–	NC(=O)c1cccc(Nc2nc(NC3C4C=CC(C4)C3C(N)=O)c3nc[nH]c3n2)c1 (racemic) [Compound 122, Racemic-(2-exo,3-exo)-N6-(3-aminocarbonylbicyclo[2.2. 1]hept-5-en-2-yl)-N2-(3-aminocarbonyl)phenyl-1H-purine-2,6-diamine]
< 5 µM	< 5 µM	Cc1csc2c(NC3C4C=CC(C4)C3C(N)=O)nc(Nc3ccc(OCCN4CCCC4)c(F)c3)nc12 (racemic) [Compound 241, Racemic-(2-exo,3-exo-)-7-methyl-N4-(3-aminocarbonylbicyclo [2.2.1]hept-5-en-2-yl)-N2-[3-fluoro-4-[2-(1-pyrrolidinyl)ethoxy]phenyl]-thieno[3,2-d]pyrimidine-2,4-diamine]
> 10 µM	–	Cc1cc2cc(Nc3nc(NC4C5C=CC(C5)C4C(N)=O)c4nc[nH]c4n3)ccc2[nH]1 (racemic) [Compound 150, Racemic-(2-exo,3-exo-)-N6-(3-aminocarbonylbicyclo[2.2. 1]hept-5-en-2-yl)-N2-(2-methyl-1H-indol-5-yl)-1H-purine-2,6-diamine]
< 5 µM	< 5 µM	CONC(=O)C1C2C=CC(C2)C1Nc1nc(Nc2cccc(OC)c2)nc2[nH]ccc12 (racemic) [Compound 233, Racemic-(2-exo,3-exo)-N4-(N-methoxy-3-aminocarbonylbicyclo [2.2.1]hept-5-en-2-yl)-N2-(3-methoxyphenyl)-1H-pyrrolo[2,3-d]pyrimidine-2,4-diamine]
> 10 µM	< 5 µM	NC(=O)C1C2C=CC(C2)C1Nc1nc(Nc2cccc(OCc3cccnc3)c2)nc2[nH]ccc12 (racemic) [Compound 225, Racemic-(2-exo,3-exo)-N4-(3-aminocarbonylbicyclo [2.2.1]hept-5-en-2-yl)-N2-[3-(3-pyridinylmethoxy)] phenyl-1H-pyrrolo[2,3-d]pyrimidine-2,4-diamine]
> 10 µM	–	NC(=O)C1C2C=CC(C2)C1Nc1nc(Nc2ccc3c(c2)OCO3)nc2[nH]cnc12 (racemic) [Compound 125, Racemic-(2-exo,3-exo)-N6-(3-aminocarbonylbicyclo[2.2. 1]hept-5-en-2-yl)-N2-(1,3-benzodioxol-5-yl)-1H-purine-2,6-diamine]
< 5 µM	–	NC(=O)C1C2C=CC(C2)C1Nc1nc(Nc2cccc(O)c2)nc2ccccc12 (racemic) [Compound 102, Racemic-(2-exo,3-exo)-N4-(3-aminocarbonylbicyclo[2.2. 1]hept-5-en-2-yl)-N2-(3-hydroxy)phenyl-2,4-quinazoline-diamine]
> 10 µM	< 5 µM	NC(=O)C1C2C=CC(C2)C1Nc1nc(Nc2cccc(OCc3cccnc3)c2)nc2[nH]cnc12 (racemic) [Compound 226, Racemic-(2-exo,3-exo-)-N6-(3-aminocarbonylbicyclo [2.2.1]hept-5-en-2-yl)-N2-[3-(3-pyridinylmethoxy)phenyl]-1H-purine-2,6-diamine]
